Assay results published in patent US6967102B1, “Nitric oxide manipulation of muscle satellite cell activation” (University of Manitoba, priority 1999, dated 2005).

What was measured:
NOS = target: T1, NOS (Mus musculus, UniProt Q9Z0J4); assay: NADPH-diaphorase enzyme histochemistry of NOS activity on muscle sections; assay type: in vivo, mice
T1 construct: confirmed using NADPH-diaphorase enzyme histochemistry on frozen sections; from tissue; host or cells: frozen sections of tibialis anterior muscle from normal mice pretreated ip with saline or L-NAME
Method: Sections ([…]) were collected on glass slides and stained with toluidine blue. The inhibition of NOS enzyme activity by L-NAME treatment 30 min. before crush was confirmed using NADPH-diaphorase enzyme histochemistry on frozen sections with jejunal epithelium as the positive control, according to Beesley (1995) Histochem. J. 27: 757–769.
i) satellite cells are identified and examined for hypertrophy and position using immunostaining for two c-met receptor, m-cadherin, neural cell adhesion molecule (N-CAM or leu19) and CD34, as markers of muscle satellite precursor cells (Irintchev A, Zeschnigk M. Starzinski-Powitz A, and Wernig A. (1994). Dev. […] In other sections c-met and HGF colocalization are used to assess activation (after (Tatsumi R, Anderson J E, Nevoret C J, Halevy 0, and Allen R E. (1998). Dev. Biol. 194:114–128). Routine fluorescent or peroxidase-conjugated secondary antibodies are used to visualize labelled satellite cells. • ii) NOS activity are determined to assess the effect of treatments that manipulate NOS activity. […] This method is modified to study homogenized tissue NOS activity. • iii) NOS expression is determined using in situ hybridisation (and Northern blotting) with a riboprobe specific for NOS-Iμ (the muscle isoform of NOS-I), made with custom primers (Kobzik L, Reid M B, Bredt D S, and Stamler J S. (1994). […]

satellite cells = assay: Histology and immunostaining (m-cadherin, c-met, HGF/SF) of satellite cells 0 and 10 min after crush; assay type: in vivo, normal mice
Method: A separate experiment was conducted to study the immediate effects of injury on muscle and satellite cell histology. […] Muscles were bisected longitudinally, and half of each muscle was frozen in OCT. for cryosectioning. Sections were stained with H&E or immunostained using primary antibodies to c-met (1:400), HGF/SF (1:1000, R&D Systems) or developmental myosin heavy chain ([…], 1:250, Novocastra Laboratories) as reported ([…] et al. (1996) Exp. Cell Res. 22: 214-222; Tatsumi et al. (1998) Dev. Biol. 194: 114-128) or against m-cadherin (1:50, Santa Cruz). […] Sections and cultures were viewed on an Olympus microscope equipped with epifluorescence and phase contrast optics. […] In the case of muscle regenerating from crush injury, observations (without knowledge of treatment group) were made in pre-set fields of muscle from the central crush region, the adjacent regenerating region and the surviving region as reported (McIntosh et al. (1994) Muscle Nerve 17: 444-453). Representative photographs of muscle fibers and satellite cells were taken on over 700 frames of ASA 400 Fuji […] slide film. Where stated, the number of satellite cells observed in each category, group or condition was estimated from photographed slides rather than from direct counts made during observations under oil immersion. Selected slides were scanned (Olympus Film Scanner ES-10, Olympus Optical Co., Tokyo), formatted into plates with little or no enlargement and printed (Freehand 8.0, Macromedia Inc.).

T1 sequence (Q9Z0J4 1-1463 isoform Q9Z0J4-5): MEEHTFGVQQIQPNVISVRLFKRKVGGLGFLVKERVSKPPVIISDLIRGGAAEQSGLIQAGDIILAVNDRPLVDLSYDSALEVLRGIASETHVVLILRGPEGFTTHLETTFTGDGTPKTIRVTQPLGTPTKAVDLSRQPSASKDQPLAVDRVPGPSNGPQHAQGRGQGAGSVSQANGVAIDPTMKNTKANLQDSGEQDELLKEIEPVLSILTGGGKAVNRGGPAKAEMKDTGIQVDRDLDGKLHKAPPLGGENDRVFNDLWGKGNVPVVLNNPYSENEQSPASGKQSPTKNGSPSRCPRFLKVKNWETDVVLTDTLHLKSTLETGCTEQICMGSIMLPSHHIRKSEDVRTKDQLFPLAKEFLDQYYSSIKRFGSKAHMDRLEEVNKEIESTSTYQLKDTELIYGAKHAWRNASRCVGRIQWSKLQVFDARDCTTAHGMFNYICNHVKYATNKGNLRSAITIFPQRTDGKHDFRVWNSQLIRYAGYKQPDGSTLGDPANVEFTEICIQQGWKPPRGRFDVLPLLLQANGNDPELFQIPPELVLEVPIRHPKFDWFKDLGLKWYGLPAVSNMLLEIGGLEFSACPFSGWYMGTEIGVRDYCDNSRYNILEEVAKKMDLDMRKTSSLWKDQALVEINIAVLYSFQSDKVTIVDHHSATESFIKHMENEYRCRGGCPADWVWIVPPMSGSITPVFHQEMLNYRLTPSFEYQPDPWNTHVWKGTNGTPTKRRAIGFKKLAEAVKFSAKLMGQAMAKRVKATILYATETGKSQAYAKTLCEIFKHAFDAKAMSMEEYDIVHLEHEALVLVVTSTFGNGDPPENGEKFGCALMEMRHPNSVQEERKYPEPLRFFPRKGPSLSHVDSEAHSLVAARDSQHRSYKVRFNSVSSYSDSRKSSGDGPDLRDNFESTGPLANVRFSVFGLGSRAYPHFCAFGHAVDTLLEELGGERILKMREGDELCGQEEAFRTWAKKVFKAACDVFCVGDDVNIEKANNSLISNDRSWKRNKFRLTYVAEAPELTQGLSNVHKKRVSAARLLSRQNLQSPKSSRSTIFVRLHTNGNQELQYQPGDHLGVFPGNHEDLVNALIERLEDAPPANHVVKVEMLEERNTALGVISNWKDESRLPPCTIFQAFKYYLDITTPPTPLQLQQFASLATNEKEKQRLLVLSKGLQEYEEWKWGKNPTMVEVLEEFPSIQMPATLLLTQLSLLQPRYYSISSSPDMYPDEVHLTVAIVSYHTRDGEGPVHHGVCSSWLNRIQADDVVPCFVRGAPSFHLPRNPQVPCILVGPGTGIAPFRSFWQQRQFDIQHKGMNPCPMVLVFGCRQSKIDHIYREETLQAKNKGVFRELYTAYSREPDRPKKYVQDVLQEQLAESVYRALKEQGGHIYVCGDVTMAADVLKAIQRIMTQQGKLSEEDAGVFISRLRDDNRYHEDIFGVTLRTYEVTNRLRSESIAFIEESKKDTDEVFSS

## COC(=O)[C@@H](N)CCCNC(=N)N[N+](=O)[O-] [L-NAME, Nω-nitro-L-arginine methyl ester]
NOS; L-NAME, after ip injection
  duration of decreased NOS activity: 40 min
NOS; pre-treatment with L-NAME, muscle sections
  NOS activity by NADPH-diaphorase staining: inhibited NOS activity
Satellite cells; L-NAME treatment 30 min before crush
  normal rapid changes in satellite cell size and position: consistently delayed and restricted
Satellite cells; L-NAME-treated mice, 0 min, more than 70 satellite cells identified
  satellite cells thin and attenuated in both RTA and LTA: 85%
Satellite cells; L-NAME-treated mice, 10 min after injury
  satellite cells with c-met and HGF/SF co-localized: at least 70%
